One experiment relates to phospho-eIF2α. Description: Immunoblotting of eIF2α phosphorylation in thapsigargin-treated CSM14.1 cells. The note with it: thapsigargin-stimulated CSM14.1, listed as CID-2878746. In kind it is cell-based, rat. From the text:
After confirming the pathway selectivity of compounds, additional downstream assays can be performed to map the specific signal transduction pathway inhibited by the compounds. In this regard, various antibody reagents are commercially available for assessing the status of the three major pathways known to be activated by ER stress: (1) PERK, (2) Ire1, and (3) ATF6 (Xu et al., J. Clinical Invest., 115:2656-2664, 2005). Immunoblotting experiments can be performed to assess the expression or phosphorylation (using phospho-specific antibodies) of marker proteins in these pathways. […] Cell lysates were prepared and analyzed by SDS-PAGE/immunoblotting using antibodies specific for phospho-c-Jun, phospho-eIF2α, phospho-p38 MAPK, and tubulin (a loading control). […] After two hrs, cell lysates were prepared, normalized for protein content, and either analyzed by SDS-PAGE/immunoblotting using anti-p38-MAPK pan-reactive antibody or phospho-specific antibody with ECL-based detection, followed by densitometry analysis of x-ray films, normalizing phosphor-p38 MAPK relative to total p38 MAPK, or analyzed using a meso-scale instrument from MSD and a procedure in which total p38 MAPK is captured on plates, and the relative amounts of phosphorylated protein were determined using phospho-specific antibody (MSD catalog #K15112D1). […]

The next experiment concerns CSM14.1 cells. Description: Pathway selectivity: cell death induced by VP16, TNF plus cycloheximide or staurosporine in CSM14.1 cells. In kind it is cell-based, rat. The note with it: 25 μM, ATP content where stated. As for the experimental part: The selectivity of compounds with respect to suppression of cell death induced by ER stress was determined by treating undifferentiated CSM14.1 cells with a variety of agents that induce apoptosis via the ER stress pathway (thapsigargin, tunicamycin), the mitochondrial pathway (VP16) or the death receptor pathway (TNF+cycloheximide [CHX]). Of the 26 hit compounds tested, 19 reduced cell death induced by thapsigargin and tunicamycin but not VP16 or TNF/CHX.
For the experiments shown in FIG. 18, undifferentiated CSM 14.1 cells were plated at 3,000 cells per well in 96-well plates (for the ATP assay) or at 1×10^4 cells per well in 24-well plates (for flow cytometry). The next day, cells were treated with DMSO (0.5%) or hit compounds 25 μM of a compound with 0.5% DMSO final concentration) for two hours, followed by treatment with various cell death-inducing reagents, including 15 μM Thapsigargin (TG) for 24 hrs, 10 μg/mL tunicamycin (TU) for 72 hrs, 2.5 μM staurosporine (STS) for 24 hrs, 50 μM VP16 for 48 hrs, or 30 ng/mL TNF plus 10 μg/mL cyclohexamide (CHX) for 24 hrs. Cellular ATP content was measured for staurosporine samples and TNF/CHX samples, normalizing data relative to cells treated with DMSO alone (the control) and presenting as a percentage of control. For measuring cell death resulting from treatment with tunicamycin and VP16, flow cytometry was used. All assays were performed in triplicate (mean ±SD).

Experiment [1] concerns PC12 rat pheochromocytoma cells. Kind of experiment: Thapsigargin-induced death of PC12 cells (undifferentiated and differentiated), ATP content assay. On the set-up: key to Cytoprotective activity, PC12 (Result): +indicates >50% rescue of cell viability relative to untreated cells not exposed to thapsigargin at compound concentration of ≦25 μM; E indicates compound enhanced thapsigargin-induced death. In kind it is cell-based. Here is the method:
In addition to CSM14.1 cells, when tested at 25 μM, Compound 5962123 protected by >50% against thapsigargin-induced death of several tumor cell lines (HeLa human cervical cancer, SW1 melanoma cell, PPC1, human prostate cancer), mouse neural stem cell C17.2 (both differentiated [neuronal phenotype] and non-differentiated [stem cell phenotype]) as determined by ATP content assay, and primary rat cortical neurons as determined by microscopy assay measuring the percentage of NeuN-immunopositive cells with either normal or apoptotic nuclear morphology (Hoechst dye staining).
For PC12, cells were stimulated with 20 ng/ml NGF for five days; for C17.2, cells were stimulated with serum reduction, and 1% N2 incubation for three days; for CSM14.1, cells were cultured at 39° C. for 5-7 days.

The test system of the next experiment is Jnk-1 and Jnk-2. Kind of experiment: c-Jun activation by purified Jnk-1 and Jnk-2, in vitro kinase assay. To be noted: 50 μM compound. In kind it is biochemical. Here is the method: C-Jun and p38 MAPK work downstream of the Ire1 pathway (see FIG. 21), we tested whether one of our hit compounds (6239507) inhibits autophosphorylation of any of kinases in this Ire1-ASK1-JNK/p38 MAPK pathway. […] An Ire1 autophosphorylation assay was performed. Immunoprecipitated Ire1 was incubated with DMSO (2%), 50 μM compound 6239507, or the positive control staurosporine (20 μM; STS) for 20 minutes at 30° C. followed by chilling on ice. 0.5 μCi of ^32P-γ-ATP was added to each tube and incubated at 30° C. for the indicated times. Kinase reactions were finished by adding sample buffer. Incorporation values of ^32P-γ-ATP were evaluated by a scintillation counter. An ASK1-MKK6-p38 coupled assay was also performed. Immunoprecipitated ASK1 was mixed with 1 μg MKK6 (Millipore) and 1 μg p38 MAPK (Sigma). Kinases were incubated with 2% DMSO, 50 μM compound 6239507, or 20 μM staurosporine (STS) in one tube for 20 minutes at 30° C. followed by ice chilling. 0.5 μCi of ^32P-γ-ATP was added to each tube and incubated at 30° C. for the indicated times. Kinase reactions were finished by adding sample buffer. Incorporation values of ^32P-γ-ATP were evaluated by a scintillation counter. C-Jun activation by purified Jnk-1 and Jnk-2 (Millipore) was confirmed with the same procedures.

The structures appear in SMILES notation. Entries after “also recorded” stand apart in the source; their conditions may differ.

For `CCN(CC)c1ccc(C2Nc3ccccc3NC3=C2C(=O)CC(c2ccccc2)C3)cc1` (centres unmarked) [Compound 5962123, 6-(4-diethylaminophenyl)-9-phenyl-5,6,8,9,10,11-hexahydrobenzo[c][1,5]benzodiazepin-7-one], the “Phosphorylation of eIF2alpha (Ser 51)” value in the experiment on phospho-eIF2α is on record as “not inhibited”. For the same compound, in the experiment on CSM14.1 cells, the “Inhibition of cell death induced by TNF-α plus cycloheximide” value is listed as “does not inhibit; also recorded: not active”, the “Inhibition of cell death induced by VP-16” value was “does not inhibit; also recorded: not active” and the “Inhibition of cell death induced by staurosporine” value is “does not inhibit; also recorded: not active”. Also, in experiment [1] (25 μM, undifferentiated or differentiated as stated, ATP content assay), the “Protection of PC12 cells from thapsigargin-induced cell death” value is given as “does not protect”. In experiment [1] (undifferentiated PC12), the “Effect on thapsigargin-treated undifferentiated PC12 cells” value is on record as “paradoxical cell death-promoting activity”. For the same compound, the “Cytoprotective activity, PC12 (Result)” value in experiment [1] (undifferentiated, thapsigargin 15 μM, ATP content, compound ≦25 μM) was “E”.
`COc1ccc(C2CC(=O)C3=C(C2)Nc2ccccc2NC3c2cccc(Oc3ccccc3)c2)cc1OC` (centres unmarked) [Compound 6239507]: in the experiment with Jnk-1 and Jnk-2, the “JNK's activity on c-Jun” value is “does not modulate”.

The values are drawn from patent US20080293699A1, “Inhibitors of thapsigargin-induced cell death” (priority 2007, published 2008).
